According to US8754079B2, “Cycloalkyl containing thienopyrimidines for pharmaceutical compositions” (Boehringer Ingelheim International GmbH, priority 2010, dated 2014):

Molecular target: T1, MNK2 (Homo sapiens, UniProt Q9HBH9)
T1 construct: the open reading frames of human Mnk1 and Mnk2a were amplified from cDNA; made in house; host or cells: E. coli BL21
Experiment: Mnk2a in vitro kinase assay (indirect fluorescence polarization)
Assay type: biochemical
Conditions: pre-activated GST-Mnk2a 2.5 nM, 20 μM ATP, 30 μM substrate peptide
Description: Inhibitory potency of compounds against Mnk1, Mnk2a and other kinases was assessed with assays based on a format known to those skilled in the art as the indirect (competitive) fluorescence polarization. The assay detection system comprises a small fluorophore-labeled phospho-peptide (termed ligand) bound to a phospho-specific antibody. The product generated by the kinase reaction competes with the ligand for antibody binding. Based on the larger molecular volume of the bound ligand, which results in a lower rotation rate in solution, its emitted light has a higher degree of polarization than the one from the free ligand.
Example 2a. Mnk1 and Mnk2a in vitro kinase assay
As a source of enzyme, human Mnk1 and human Mnk2a were expressed as GST fusion proteins in E. coli, purified to >80% homogeneity by glutathione affinity chromatography and activated in vitro with pre-activated ERK2. In brief, the open reading frames of human Mnk1 and Mnk2a were amplified from cDNA using the forward/reverse primer pairs
(utilized restriction sites underlined), respectively, and cloned into the BamHI and SalI sites of the vector pGEX-4T1 (Amersham, Sweden, cat. no. 27-4580-01). These constructs allow prokaryotic expression of Mnk1 or Mnk2a as fusion protein with a N-terminal glutathione S-transferase (GST) tag, referred to as GST-Mnk1 or GSTMnk2a. The following expression and purification procedure was identical for GSTMnk1 and GST-Mnk2a, referring in general to GST-Mnk, when not distinguishing between the two isoforms. Expression of GST-Mnk was in E. coli BL21 (Merck Biosciences, Germany, cat. no. 69449). Cells were grown in LB-Bouillon (Merck, Germany, cat. no. 1.10285) supplemented with 100 μg/ml ampicillin (Sigma, Germany, cat. no. A9518) at 37° C. When the culture had reached a density corresponding to an A600 of 0.8, an equal volume of ice cold LB/ampicillin was added, the culture transferred to 25° C. and induced for 4 h with 1 mM isopropyl thiogalactoside (IPTG, Roth, Germany, cat. no. 2316.4). Cells harvested by centrifugation were resuspended in 10 ml lysis buffer (50 mM tris(hydroxymethyl)aminomethane hydrochloride (Tris/HCl, Sigma, Germany, cat. no. T5941) pH 7.5, 300 mM sodium chloride (NaCl, Sigma, Germany, cat. no. S7653), 5% (w/v) glycerol (Sigma, Germany, cat. no. G5516), 3 mM DTT dithiotreitol (DTT, Sigma, Germany, cat. no. D9779)) per gram wet weight cell pellet. Lysates were prepared by disruption of cells with a sonifier and subsequent clearing by centrifugation at 38000 g for 45 min at 4° C.
The lysate was applied to a GSTPrep FF 16/10 column (Amersham, Sweden, cat. no. 17-5234-01) equilibrated with lysis buffer. Removal of unbound material was with 3 column volumes (CV) lysis buffer. Elution was with 2 CV of elution buffer (50 mM Tris/HCl pH 7.5, 300 mM NaCl, 5% (w/v) glycerol, 20 mM glutathione (Sigma, Germany, cat. no. G4251)). Peak fractions were pooled and the protein transferred into storage buffer (50 mM Tris/HCl pH 7.5, 200 mM NaCl, 0.1 mM ethylene glycolbis(2-aminoethylether)-N,N,N′,N′-tetraacetic acid (EGTA, Aldrich, Germany, cat. no. 23, 453-2), 1 mM DTT, 10% (w/v) glycerol, 0.5 M sucrose (Sigma, Germany, cat. no. S0389) by gel filtration on a PD10 desalting column (Amersham, Sweden, cat. no. 17-0851-01). Aliquots were shock frozen in liquid nitrogen and stored at −80° C.
Activation of Mnk1 and Mnk2a was at a concentration of 2.5 μM of either purified GST-Mnk1 or GST-Mnk2a by incubation with 150 nM pre-activated NHis-ERK2 (see ERK2 assay for preparation) and 50 μM adenosine triphosphate (ATP, Sigma, cat. no. A2699) in a buffer comprising 20 mM N-(2-hydroxyethyl)piperazine-N′-(2-ethanesulfonic acid) (HEPES, Fluka, Germany, cat. no 54459)/potassium hydroxide (KOH, Roth, Germany, cat. no 6751.1) pH 7.4, 10 mM magnesium chloride (MgCl2, Sigma, Germany, cat. no. M2670), 0.25 mM DTT, 0.05% (w/v) polyoxyethylene 20 stearylether (Brij 78, Sigma, Germany, cat. no. P4019) (HMDB buffer) for 45 min at 30° C. […]

T1 sequence (Q9HBH9 whole entry): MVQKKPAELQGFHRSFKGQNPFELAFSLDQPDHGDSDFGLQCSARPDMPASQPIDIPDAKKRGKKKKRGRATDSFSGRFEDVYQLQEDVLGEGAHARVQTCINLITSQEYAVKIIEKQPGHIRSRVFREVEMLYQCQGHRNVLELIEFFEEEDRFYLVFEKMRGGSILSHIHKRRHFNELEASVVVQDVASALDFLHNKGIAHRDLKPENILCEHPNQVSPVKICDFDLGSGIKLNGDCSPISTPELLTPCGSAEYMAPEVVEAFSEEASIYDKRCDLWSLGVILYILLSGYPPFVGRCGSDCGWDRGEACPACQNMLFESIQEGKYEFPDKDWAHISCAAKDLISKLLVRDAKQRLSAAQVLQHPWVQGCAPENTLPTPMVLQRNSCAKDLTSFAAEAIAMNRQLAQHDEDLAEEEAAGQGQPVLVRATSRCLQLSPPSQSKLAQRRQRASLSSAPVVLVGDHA

| SMILES | IC50 [nM] |
| --- | --- |
| Cc1c(C(N)=O)sc2ncnc(Nc3ccc(F)cc3O[C@@H]3CCCC[C@@H]3O)c12 (racemic) [Example 56, Racemic 4-[4-Fluoro-2-((cis)-2-hydroxy-cyclohexyloxy)-phenylamino]-5-methyl-thieno[2,3-d]pyrimidine-6-carboxylic acid amide] | 33 |
| CO[C@H]1CC[C@H](Oc2cc(F)ccc2Nc2ncnc3sc(C(=O)NCC4CNCCO4)c(C)c23)CC1 (stereo partly drawn) [Example 180] | 16 |
| COC1CCCC(Oc2cc(F)ccc2Nc2ncnc3sc(C(=O)NCCCN4CCCC4)c(C)c23)C1 (stereo not drawn) [Example 87] | 38 |
| Cc1c(C(=O)NCCCO)sc2ncnc(Nc3ccc(F)cc3O[C@H]3CC[C@H](O)CC3)c12 [Example 172] | 16 |
| COC1CCCC(Oc2ncccc2Nc2ncnc3sc(C(=O)NCC(C)O)c(C)c23)C1 (mixture of isomers) [Example 146] | 105 |
| COC1CCCC(Oc2ncccc2Nc2ncnc3sc(C(=O)NC4CC4N)c(C)c23)C1 (mixture of isomers) [Example 111] | 36 |
| Cc1c(C(N)=O)sc2ncnc(Nc3ccc(F)cc3O[C@@H]3C[C@@H](O)[C@@H](O)C3)c12 [Example 212] | 8 |
| COC1CCCCC1Oc1cc(F)ccc1Nc1ncnc2sc(C(=O)NC3CCCC3O)c(C)c12 (stereo not drawn) [Example 250] | 19 |
| CC(=O)N[C@H]1CC[C@H](Oc2cc(F)ccc2Nc2ncnc3sc(C(N)=O)c(C)c23)C1 [Example 230, 4-[2-((1S,3S)-3-Acetylamino-cyclopentyloxy)-4-fluoro-phenylamino]-5-methyl-thieno[2,3-d]pyrimidine-6-carboxylic acid amide] | 4 |
| CO[C@@H]1CCC[C@@H](Oc2cc(F)ccc2Nc2ncnc3sc(C(N)=O)c(C)c23)C1 (racemic) [Example 79, Racemic 4-[4-Fluoro-2-((trans)-3-methoxy-cyclohexyloxy)-phenylamino]-5-methyl-thieno[2,3-d]pyrimidine-6-carboxylic acid amide] | 15 |
| CNC(=O)CNC(=O)c1sc2ncnc(Nc3cccnc3O[C@@H]3CCC[C@H](OC)C3)c2c1C (racemic) [Example 116] | 33 |
| COC(=O)[C@H](CO)NC(=O)c1sc2ncnc(Nc3ccc(F)cc3O[C@H]3CC[C@H](OC)CC3)c2c1C (relative stereo) [Example 272, 2-({-4-[4-Fluoro-2-(trans-4-methoxy-cyclohexyloxy)-phenylamino]-5-methyl-thieno[2,3-d]pyrimidine-6-carbonyl}-amino)-3-hydroxy-propionic acid methyl ester] | 33 |
| COCCNC(=O)c1sc2ncnc(Nc3ccc(F)cc3O[C@H]3CC[C@@H](OC)CC3)c2c1C [Example 203] | 62 |
| Cc1c(C(N)=O)sc2ncnc(Nc3ccc(F)cc3O[C@H]3CC[C@H](NC(=O)OC(C)(C)C)C3)c12 [Example 228, {(1S,3S)-3-[2-(6-Carbamoyl-5-methyl-thieno[2,3-d]pyrimidin-4-ylamino)-5-fluoro-phenoxy]-cyclopentyl}-carbamic acid tert-butyl ester] | 1140 |
| Cc1c(C(=O)NCCCN(C)C)sc2ncnc(Nc3ccc(F)cc3OC3CCC(F)(F)CC3)c12 [Example 34, 4-[2-(4,4-Difluoro-cyclohexyloxy)-4-fluoro-phenylamino]-5-methyl-thieno[2,3-d]pyrimidine-6-carboxylic acid (3-dimethylamino-propyl)-amide] | 28 |
| Cc1c(C(=O)O)sc2ncnc(Nc3ccc(F)cc3O[C@H]3C[C@@H]4OCO[C@@H]4C3)c12 [Example 290, 4-[4-Fluoro-2-(tetrahydro-cyclopenta[1,3]dioxol-5-yloxy)phenylamino]-5-methyl-thieno[2,3-d]pyrimidine-6-carboxylic acid] | 8 |
| COCCNC(=O)c1sc2ncnc(Nc3ccc(F)cc3O[C@@H]3CCCC[C@H]3O)c2c1C [Example 54, 4-[4-Fluoro-2-((1R,2R)-2-hydroxy-cyclohexyloxy)-phenylamino]-5-methyl-thieno[2,3-d]pyrimidine-6-carboxylic acid (2-methoxy-ethyl)-amide] | 62 |

| SMILES | IC50 [nM] |
| --- | --- |
| Cc1c(C(=O)NC2CCN(C)CC2)sc2ncnc(Nc3ccc(F)cc3OC3CCCCC3O)c12 (single isomer, unassigned) [Example 265] | 54 |
| CCCCNC(=O)c1sc2ncnc(Nc3cccnc3O[C@H]3CC[C@H](N)CC3)c2c1C [Example 286] | 4 |
| CO[C@H]1CCCC[C@H]1Oc1cc(F)ccc1Nc1ncnc2sc(C(N)=O)c(C)c12 (racemic) [Example 55, Racemic 4-[4-Fluoro-2-(cis-2-methoxy-cyclohexyloxy)-phenylamino]-5-methyl-thieno[2,3-d]pyrimidine-6-carboxylic acid amide] | 59 |
| CC(=O)N[C@H]1CC[C@H](Oc2cc(F)ccc2Nc2ncnc3sc(C(=O)NCCCN(C)C)c(C)c23)CC1 [Example 6] | 7 |
| COC1CCC(Oc2cc(F)ccc2Nc2ncnc3sc(C(=O)NCCCCO)c(C)c23)CC1 (stereo not drawn) [Example 181] | 21 |
| Cc1c(C(=O)NCCCN(C)C)sc2ncnc(Nc3ccc(F)cc3O[C@@H]3CC[C@@H](O)[C@H]3O)c12 (relative stereo) [Example 222] | 41 |
| Cc1c(C(=O)NCC2CNCCO2)sc2ncnc(Nc3ccc(F)cc3OC3CCCC(O)C3)c12 (mixture of isomers) [Example 67] | 18 |
| Cc1c(C(=O)NCC2CNCCO2)sc2ncnc(Nc3ccc(F)cc3O[C@H]3CC[C@H](O)CC3)c12 (stereo partly drawn) [Example 166] | 11 |
| Cc1c(C(N)=O)sc2ncnc(Nc3ccc(F)cc3O[C@H]3CCC[C@@H]3NC(=O)C3CC3)c12 [Example 293, (1S,2S) 4-{2-[2-(Cyclopropanecarbonyl-amino)-cyclopentyloxy]-4-fluoro-phenylamino}-5-methyl thieno[2,3-d]pyrimidine-6-carboxylic acid amide] | 377 |
| CC(=O)N[C@H]1C[C@H](Oc2cc(F)ccc2Nc2ncnc3sc(C(N)=O)c(C)c23)C1 [Example 35.3, 4-[2-(trans-3-Acetylamino-cyclobutoxy)-4-fluoro-phenylamino]-5-methyl-thieno[2,3-d]pyrimidine-6-carboxylic acid amide] | 23 |
| Cc1c(C(=O)NCCCN2CCCC2)sc2ncnc(Nc3ccc(F)cc3OC3CCCCC3O)c12 (single isomer, unassigned) [Example 260] | 255 |
| CO[C@@H]1CCCC[C@H]1Oc1cc(F)ccc1Nc1ncnc2sc(C(=O)NCCSC)c(C)c12 [Example 252] | 18 |
| CNC(=O)CNC(=O)c1sc2ncnc(Nc3ccc(F)cc3O[C@H]3CC[C@H](O)CC3)c2c1C [Example 164] | 16 |
| COC1CCCC(Oc2cc(F)ccc2Nc2ncnc3sc(C(=O)NCC#CCN(C)C)c(C)c23)C1 (stereo not drawn) [Example 96] | 14 |
| CC(=O)N[C@H]1CC[C@H](Oc2cc(F)ccc2Nc2ncnc3sc(C(=O)NCCCN(C)C)c(C)c23)C1 [Example 237] | 25 |
| COC(=O)N(C)[C@H]1CC[C@H](Oc2cc(F)ccc2Nc2ncnc3sc(C(N)=O)c(C)c23)CC1 [Example 11, Methyl trans-4-(2-(6-carbamoyl-5-methylthieno[2,3-d]pyrimidin-4-ylamino)-5-fluorophenoxy)cyclohexyl(methyl)carbamate] | 7 |
